Experimental data taken from US6552014B2, “Methods of inhibiting platelet activation with selective serotonin reuptake inhibitors” (HeartDrug Research, L.L.C., priority 1999, dated 2003).

How the values were obtained:
human platelets = assay: Platelet inhibition / platelet activation state, overall statement; type: cell-based; conditions: platelet rich plasma and whole blood
Experimental: Trisodium citrate (3.8%) and whole blood is immediately mixed in a 1:9 ratio, and then centrifuged at 1200 g for 2.5 minutes, to obtain platelet-rich plasma (PRP), which is kept at room temperature for use within 1 hour for platelet aggregation studies. Platelet count is determined in each PRP sample with a Coulter Counter ZM (Coulter Co., Hialeah, Fla.). Platelet numbers are adjusted to 3.50×10^8/ml for aggregation with homologous platelet-poor plasma. PRP and whole blood aggregation tests are performed simultaneously. Whole blood is diluted 1.1 with the 0.5 ml PBS, and then swirled gently to mix . […] Platelet aggregability are expressed as the percentage of light transmittance change from baseline using platelet-poor plasma as a reference at the end of recording time for plasma samples, or as a change in electrical impedance for whole blood samples. Aggregation curves are recorded for 4 minutes and analyzed according to internationally established standards using Aggrolinkg® software.
Venous blood (8 ml) was collected in a plastic tube containing 2 ml of acid-citrate-dextrose (ACD) (7.3 g citric acid, 22.0 g sodium citrate×2H2O and 24.5 glucose in 1000 ml distilled water) and mixed well. […] Samples were stored in the refrigerator at +4 °C, and analyzed on a Becton Dickinson FACScan flow cytometer with laser output of 15 mw, excitation at 488 nm, and emission detection at 530±30 nm. […]

platelets = assay: Platelet aggregation in whole blood (ADP or collagen); type: cell-based, human
Experimental: Trisodium citrate (3.8%) and whole blood is immediately mixed in a 1:9 ratio, and then centrifuged at 1200 g for 2.5 minutes, to obtain platelet-rich plasma (PRP), which is kept at room temperature for use within 1 hour for platelet aggregation studies. Platelet count is determined in each PRP sample with a Coulter Counter ZM (Coulter Co., Hialeah, Fla.). Platelet numbers are adjusted to 3.50×10^8/ml for aggregation with homologous platelet-poor plasma. PRP and whole blood aggregation tests are performed simultaneously. Whole blood is diluted 1.1 with the 0.5 ml PBS, and then swirled gently to mix . The cuvette with the stirring bar is placed in the incubation well and allowed to warm to 37° C. for 5 minutes. Then the sample are transferred to the assay well. An electrode is placed in the sample cuvette. Platelet aggregation is stimulated with 5 μM ADP, 1 μg/ml collagen, and 0.75 mM arachidonic acid. All agonists are obtained from Chronolog Corporation (Hawertown, Pa.). […] Platelet aggregability are expressed as the percentage of light transmittance change from baseline using platelet-poor plasma as a reference at the end of recording time for plasma samples, or as a change in electrical impedance for whole blood samples. Aggregation curves are recorded for 4 minutes and analyzed according to internationally established standards using Aggrolinkg® software.

Structure (SMILES): N[C@H]1CC[C@@H](c2ccc(Cl)c(Cl)c2)c2ccccc21 [Desmethyl sertraline, N-desmethylsertraline]
- platelet inhibition / platelet activation state, in words (human platelets): potent dose-dependent effects inhibiting human platelets
- platelet inhibition / platelet activation state, in words (human platelets; listed as NDMS): significantly reduces the platelet activation state

Structure (SMILES): CN[C@H]1CC[C@@H](c2ccc(Cl)c(Cl)c2)c2ccccc21 [sertraline]
- ADP-, and collagen-induced platelet aggregation in whole blood (in vitro), in words (platelets; healthy controls and patients with coronary artery disease, including those on aspirin): Dose-dependent inhibition
- percent of platelet aggregation (FIGS. 2 and 3), in words (platelets; whole blood, healthy volunteer, induced with ADP or collagen, sertraline 18.1, 44.7 or 85.3 ng/ml): decreases with increasing amounts of sertraline
